Entries after “also recorded” stand apart in the source; their conditions may differ.
Assays:
[1] = molecular target: T1, Pdr5 (Saccharomyces cerevisiae, UniProt P33302); experiment: Pdr5 transport assay (R6G) in plasma membrane preparations; type: biochemical; design: R6G transport activity of Pdr5 WT inhibited to (initial screen): dose or concentration left out as unconfirmed; conditions: for R6G transport activity of Pdr5 WT inhibited to (initial screen): relative to Pdr5 WT without compound
T1 construct: effect on (A) the transport activity of Pdr5 WT and (B) their effect on the ATPase activity; made in house; host or cells: S. cerevisiae YRE1001 (pdr1-3 background), isolated plasma membranes
Procedure: (§1) Saccharomyces cerevisiae cells expressing Pdr5 WT or the E1036Q (EQ) mutant were cultured to an OD600 of 1.5 in YPD-media at 25°C. The nitrogen source was replenished by addition of a 10th volume of 5x YP (50 g/l yeast extract, 100 g/l peptone). The cells were grown to an OD of 3.5 and harvested (5000 ×g at 4°C for 15 min). The isolation of Pdr5 containing PMs was performed as described ([Kolaczkowski et al., 1996]; [Ernst et al., 2008]).
Active transport of R6G was measured according to the protocol developed by [Kolaczkowski et al. (1996)], using a Tecan Infinite 200 pro reader (Tecan Group AG, Männedorf, Switzerland). 6 μg of the isolated PM containing Pdr5 were resuspended in 200 μl of the transport buffer (50 mM HEPES, pH 7.0, 5 mM MgCl2, 10 mM NaN3, and 150 nM R6G) and incubated in a black 96-well plate at 30°C. 5 μl of the test compound were added at the indicated concentrations. Active transport was initiated by the addition of 10 μl 200 mM ATP and fluorescence intensity was recorded in 15 s-intervals for 20 min (excitation wavelength at 524 nm, emission wavelength at 558 nm, number of flashes 30, integration time 2000 μs). IC50 determination was performed with a serial dilution of the test compounds.

[2] = tested on: P-gp expressing HCT-15 cells; experiment: Sensitization of HCT-15 cells to doxorubicin (co-treatment, cell viability); type: cell-based, human; conditions: for Fold change of doxorubicin IC50: IC50 (drug alone)/IC50 (drug with modulator)
Procedure: (§2) Cytotoxic activity of test compounds was analyzed after 48 h using the CellTiter-Glo Luminescent Cell Viability Assay published previously ([Weber et al., 2017]) in 384-well plates with the following cell densities: A549, MCF-7/MX: 2 × 10^3 cells/well; HCT-15: 3 × 10^3 cells/well; H69AR: 5 × 10^3 cells/well. Pipetting was conducted with the CyBi-Well 96-channel simultaneous pipettor (Analytik Jena AG, Jena, Germany). For generation of dose-response curves and calculation of IC50 values, the four-parameter logistic model was applied.
(§3) The ability of identified inhibitors of P-gp and BCRP to sensitize HCT-15 or MCF-7/MX cells to chemotherapy was analyzed by co-treatment with test compounds and doxorubicin or mitoxantrone, respectively. Cells were incubated with a serial dilution of the chemotherapeutic drug alone or in combination with fixed concentrations of the test compounds or positive controls (2.5 μM PSC833 and 1 μM Ko143, respectively). Fold change of drug IC50 was calculated with the formula IC50 (drug alone)/IC50 (drug with modulator).

[3] = molecular target: T1, Pdr5; experiment: Pdr5 ATPase assay (oligomycin-sensitive) in plasma membrane preparations; type: biochemical; conditions: highest concentrations (10 mM), in comparison to Pdr5 WT in the absence of any compound
Procedure: as §1
Oligomycin (OM)-sensitive ATPase activity was measured from 0.8 μg PM containing Pdr5 incubated with 2 mM ATP, 5 mM MgCl2 in 270 mM TRIS-glycine buffer (pH 9.5) and 2.5 μl of the test compounds or DMSO as a control in a total volume of 100 μl. To reduce the background activities, 0.2 mM ammonium molybdate, 10 mM NaN3 and 50 mM KNO3, respectively, were added ([Dufour et al., 1988]; [Goffeau and Dufour, 1988]). In a second assay, OM (20 μg/ml) was added to an otherwise identical setup. After incubation at 30°C for 20 min, the reaction was stopped by adding 25 μl of the reaction to 175 μl 40 mM H2SO4. The amount of released inorganic phosphate was determined by a colometric assay in 96-well plates ([Goffeau and Dufour, 1988]; [Decottignies et al., 1994]; [Wada et al., 2002]). The difference of both assays ( ± OM) corresponds to the specific ATPase activity of Pdr5 ([Ernst et al., 2008]).

[4] = tested on: BCRP-expressing MCF-7/MX cells; experiment: Sensitization of MCF-7/MX cells to mitoxantrone (co-treatment, cell viability); type: cell-based, human; conditions: for Fold change of mitoxantrone IC50: IC50 (drug alone)/IC50 (drug with modulator)
Procedure: as §2, §3

[5] = tested on: S. cerevisiae strain expressing Pdr5 WT; experiment: Liquid drug assay, yeast strain expressing Pdr5 WT; type: cell-based, Saccharomyces cerevisiae; conditions: serial dilutions, 48 h, 30°C, OD600
Procedure: (§4) The following S. cerevisiae yeast strain was used: YRE1001 (MATa ura3-52 trp1-1 leu2-3,112 his3-11,15 ade2-1 pdr1-3 pdr5pdr5promΔ::TRP1). S. cerevisiae was cultured in YPD medium (10 g/L yeast extract, 20 g/L peptone, 2% glucose) at 30°C and 200 rpm. The yeast strain has been described previously ([Ernst et al., 2008]; [Gupta et al., 2014]). Based on these studies it is evident that Pdr5 localizes to the PM and is present in approximately 10% of the overall membrane protein content of the PM.
(§5) The liquid drug assay was carried out in sterile 96-well plates. 50 μl of yeast cell culture at an OD600 of 0.15 were mixed with 193.75 μl YPD and 6.25 μl of the test compound or DMSO as a negative control. To distinguish between cytotoxic compounds and those which inhibit Pdr5 WT specifically, the Pdr5 substrate ketoconazole was added only to cultures expressing wild-type Pdr5 in a final concentration of 1 μg/ml. At this concentration, inhibition of Pdr5 would result in ketoconazole-mediated cell death. After 48 h at 30°C the growth was measured with an ELISA plate reader (BioRad, Hercules, CA, United States) at 595 nm.

[6] = tested on: S. cerevisiae strain expressing Pdr5 EQ; experiment: Liquid drug assay, yeast strain expressing Pdr5 EQ mutant; type: cell-based, Saccharomyces cerevisiae; conditions: serial dilutions, 48 h, 30°C, OD600
Procedure: as §4, §5

T1 sequence (P33302 whole entry): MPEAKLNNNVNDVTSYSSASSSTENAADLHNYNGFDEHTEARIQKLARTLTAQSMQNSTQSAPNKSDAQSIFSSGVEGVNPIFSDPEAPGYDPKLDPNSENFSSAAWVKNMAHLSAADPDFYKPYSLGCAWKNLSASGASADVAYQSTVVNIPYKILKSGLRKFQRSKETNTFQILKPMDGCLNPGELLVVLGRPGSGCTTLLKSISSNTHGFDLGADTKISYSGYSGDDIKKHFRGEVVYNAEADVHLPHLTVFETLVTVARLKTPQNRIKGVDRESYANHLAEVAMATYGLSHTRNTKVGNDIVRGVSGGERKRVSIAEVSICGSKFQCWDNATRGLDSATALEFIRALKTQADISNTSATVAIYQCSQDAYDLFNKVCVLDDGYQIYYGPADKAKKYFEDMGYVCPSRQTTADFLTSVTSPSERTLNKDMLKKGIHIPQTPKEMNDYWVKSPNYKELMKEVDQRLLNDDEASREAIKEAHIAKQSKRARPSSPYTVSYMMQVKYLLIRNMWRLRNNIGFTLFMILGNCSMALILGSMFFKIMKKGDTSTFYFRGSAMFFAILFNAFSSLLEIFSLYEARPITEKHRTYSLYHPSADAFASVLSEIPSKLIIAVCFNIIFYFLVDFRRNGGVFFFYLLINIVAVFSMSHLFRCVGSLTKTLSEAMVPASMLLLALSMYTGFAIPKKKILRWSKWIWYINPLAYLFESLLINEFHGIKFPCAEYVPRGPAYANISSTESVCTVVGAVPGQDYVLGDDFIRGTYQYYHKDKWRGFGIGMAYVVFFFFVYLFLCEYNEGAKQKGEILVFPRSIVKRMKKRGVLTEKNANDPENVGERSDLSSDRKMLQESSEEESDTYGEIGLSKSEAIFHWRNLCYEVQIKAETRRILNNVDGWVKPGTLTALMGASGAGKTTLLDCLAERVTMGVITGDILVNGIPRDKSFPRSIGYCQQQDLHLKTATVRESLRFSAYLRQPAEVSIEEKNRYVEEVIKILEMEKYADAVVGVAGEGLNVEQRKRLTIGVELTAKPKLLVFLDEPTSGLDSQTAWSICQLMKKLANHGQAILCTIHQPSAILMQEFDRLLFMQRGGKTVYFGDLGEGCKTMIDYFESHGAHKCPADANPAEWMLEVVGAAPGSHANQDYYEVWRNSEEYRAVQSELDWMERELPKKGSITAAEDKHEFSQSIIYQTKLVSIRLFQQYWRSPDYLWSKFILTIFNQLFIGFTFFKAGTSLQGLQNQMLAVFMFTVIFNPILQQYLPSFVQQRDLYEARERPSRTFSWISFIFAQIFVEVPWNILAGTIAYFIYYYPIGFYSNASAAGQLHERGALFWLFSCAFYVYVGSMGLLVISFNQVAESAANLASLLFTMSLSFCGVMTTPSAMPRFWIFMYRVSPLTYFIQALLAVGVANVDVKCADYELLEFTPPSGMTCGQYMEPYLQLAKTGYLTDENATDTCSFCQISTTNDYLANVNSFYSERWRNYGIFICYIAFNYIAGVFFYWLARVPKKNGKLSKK

SMILES	R6G transport activity of Pdr5 WT inhibited to (initial screen) [1]	Sensitization of HCT-15 cells to doxorubicin (in words) [2]	Fold change of doxorubicin IC50 ([2]; +20 μM of the modulator)	Fold change of doxorubicin IC50 ([2]; +50 μM of the modulator)	ATPase activity of Pdr5 WT inhibited to (initial screen) [3]	Sensitization of MCF-7/MX cells to mitoxantrone (in words) [4]	Fold change of mitoxantrone IC50 ([4]; +10 μM of the modulator)	Fold change of mitoxantrone IC50 ([4]; +20 μM of the modulator)	Fold change of mitoxantrone IC50 ([4]; +50 μM of the modulator)	IC50 [1]	Effect on growth of yeast strain expressing Pdr5 WT [5]	Effect on growth of yeast strain expressing Pdr5 EQ mutant [6]	R6G transport activity of Pdr5 WT inhibited to (initial screen) ([1]; listed as 4)	R6G transport activity of Pdr5 WT inhibited to (initial screen) ([1]; listed as angelicoin B (4))	ATPase activity of Pdr5 WT inhibited to (initial screen) ([3]; listed as 4)	ATPase activity of Pdr5 WT inhibited to (initial screen) ([3]; listed as angelicoin (4))	ATPase activity of Pdr5 WT inhibited to (initial screen) ([3]; listed as angelicoin B (4))
COc1cc(O)c2c(c1)CCOC2=O [Compound 14]	did not interfere with Pdr5-mediated R6G transport; also recorded: no effect	did not sensitize the cells to doxorubicin	0.89	0.80	nearly no effect; also recorded: no inhibitory effect	did not have a significant influence	1.01	0.77	0.78								
CCCCCC1Cc2cc(OC)cc(OC)c2C(=O)O1 (stereo not shown) [Compound 16a]	inhibit the transport of R6G completely; also recorded: inhibit the transport activity of Pdr5 WT completely									14.6 ± 3.9 µM	no effect on the wild-type strain	inhibited the growth of the mutant strain slightly at the highest tested concentration					
COc1cc(O)c2c(c1)C[C@H](C)OC2=O [Angelicoin B (4), angelicoin B]													no effect	did not interfere with Pdr5-mediated R6G transport	nearly no effect	no effect	no inhibitory effect
CCCCCC1Cc2cc(OC)cc(O)c2C(=O)O1 (stereo not shown) [Compound 16]	inhibit the transport of R6G completely; also recorded: inhibit the transport activity of Pdr5 WT completely		0.98	3.7			0.93	3.70	5.6	15.1 ± 2.1 µM							

Source: article PMC6476959, “Novel 3,4-Dihydroisocoumarins Inhibit Human P-gp and BCRP in Multidrug Resistant Tumors and Demonstrate Substrate Inhibition of Yeast Pdr5” (Frontiers in Pharmacology, 2019)
